Reference: the NIST ThermoML archive (doi:10.1021/je2000827)

Conditions: Liquid; for vapor or sublimation pressure: Closed cell (Static) method

FC(F)Cl [chlorodifluoromethane]
Conditions	mass density [kg/m3]	vapor or sublimation pressure [kPa]
237.03 K	1396.88	125.48
242.05 K	1380.58	156.52
248.23 K	1361.7	202.41
250.79 K	1352.02	223.86
257.12 K	1333.18	285.6
262.27 K	1317.65	343.76
267.03 K	1302.17	405.65
272.37 K	1283.62	485.71
276.67 K	1268.86	558.12
283.21 K	1244.97	682.58
287.52 K	1231.04	774.37
294.06 K	1206.17	932.29
298.34 K	1188.92	1047.7
303.44 K	1168.12	1201.9
306.98 K	1156.73	1316.4

CCF [fluoroethane]
Conditions	mass density [kg/m3]	vapor or sublimation pressure [kPa]
231.49 K	822.41	83.13
234.21 K	817.05	94.43
236.99 K	812.28	107.29
239.38 K	807.75	119.32
242.26 K	802.85	135.31
244.45 K	798.89	148.5
247.17 K	794.45	166.36
249.55 K	790.12	183.2
252.04 K	784.97	202.06
254.66 K	781.18	223.94
256.86 K	777.42	243.51
259.79 K	772.38	271.62
261.53 K	769.17	289.32
264.92 K	762.96	326.52
267.46 K	758.21	356.63
270.02 K	753.26	389.01
272.57 K	748.47	423.54
275.14 K	743.66	460.69
277.69 K	738.45	499.68
280.25 K	734.48	542.23
282.93 K	728.08	587.98
285.36 K	724.27	633.63
288.87 K	715.99	701.87
290.5 K	713.52	736.6
293.49 K	706.47	801.35
296.62 K	699.98	874.83
298.35 K	696.18	917.13
301.4 K	689.76	996.4
303.42 K	685.09	1051
305.56 K	680.24	1111.4
308.36 K	673.98	1195.1
311.02 K	667.87	1278.7
313.56 K	661.98	1362.7
316.06 K	655.89	1439.2
318.06 K	650.99	1511.1
320.34 K	645.22	1596.5
322.83 K	638.81	1683.8
325.41 K	632.16	1800.8
328.04 K	625.04	1922.5
330.58 K	617.82	2035.8
332.88 K	609.12	2105.8
335.61 K	599.54	2262.5
337.83 K	591.63	2369.9
340.19 K	583.39	2489.5
343.01 K	573.25	2639
